# Test results as given in the supplement of paper PMC8671470.
# ± gives the standard deviation of the averaged measurements.
# Tested on: HL-60
# Test: cell viability (% survival relative to DMSO control); higher = less cytotoxic
# Conditions: 72 h
# How it was run: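 A rescreen of the full library used HL-60 cells in RPMI 1640 with 10% FBS on 384-well plates, run in duplicate at five tenfold concentrations (1–10,000 nM). Each screen included DMSO or 100 nM of one of three metabolic inhibitors and ran 72 h at 37 °C, 5% CO2. CellTiter-Glo viability was scaled between DMSO and 10 μM proteasome-inhibitor wells. Any area under the curve comes from four-parameter log-logistic fits with drc and PharmacoGx.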
# [1] = 0.001 µM, co-treatment: AZD3965 100 nM
# [2] = 0.001 µM, co-treatment: DMSO vehicle
# [3] = 0.001 µM, co-treatment: GSK2194069 100 nM
# [4] = 0.001 µM, co-treatment: pictilisib 100 nM
# [5] = 0.01 µM, co-treatment: AZD3965 100 nM
# [6] = 0.01 µM, co-treatment: DMSO vehicle
# [7] = 0.01 µM, co-treatment: GSK2194069 100 nM
# [8] = 0.01 µM, co-treatment: pictilisib 100 nM
# [9] = 0.1 µM, co-treatment: AZD3965 100 nM
# [10] = 0.1 µM, co-treatment: DMSO vehicle
# [11] = 0.1 µM, co-treatment: GSK2194069 100 nM
# [12] = 0.1 µM, co-treatment: pictilisib 100 nM
# [13] = 1 µM, co-treatment: AZD3965 100 nM
# [14] = 1 µM, co-treatment: DMSO vehicle
# [15] = 1 µM, co-treatment: GSK2194069 100 nM
# [16] = 1 µM, co-treatment: pictilisib 100 nM
# [17] = 10 µM, co-treatment: AZD3965 100 nM
# [18] = 10 µM, co-treatment: DMSO vehicle
# [19] = 10 µM, co-treatment: GSK2194069 100 nM
# [20] = 10 µM, co-treatment: pictilisib 100 nM
Compound,cell viability [1] [%],cell viability [2] [%],cell viability [3] [%],cell viability [4] [%],cell viability [5] [%],cell viability [6] [%],cell viability [7] [%],cell viability [8] [%],cell viability [9] [%],cell viability [10] [%],cell viability [11] [%],cell viability [12] [%],cell viability [13] [%],cell viability [14] [%],cell viability [15] [%],cell viability [16] [%],cell viability [17] [%],cell viability [18] [%],cell viability [19] [%],cell viability [20] [%]
C1CCc2nnc(C34CC5CC(CC(C5)C3)C4)n2CC1 [MERCK-544],103 ± 3,98.4 ± 1.3,105 ± 1.7,97 ± 1.1,103.1 ± 0.36,103 ± 2.8,108 ± 2,109 ± 8.3,99.41 ± 0.58,98.1 ± 2.4,99.8 ± 1.6,96.63 ± 0.71,100.6 ± 0.51,99.7 ± 1.4,96.27 ± 0.66,95.52 ± 0.25,108 ± 2,101 ± 2.6,109 ± 5.7,102 ± 10
CC(Cc1ccc(O)c(O)c1)C(C)Cc1ccc(O)c(O)c1 (stereo not given) [Masoprocol],103 ± 4.1,101.9 ± 0.67,102 ± 9.7,102 ± 5.4,100 ± 7.9,98.1 ± 2.7,100.9 ± 0.44,89.6 ± 7.2,98.5 ± 1.4,96.29 ± 0.34,98.6 ± 2.7,94 ± 5.3,92.8 ± 4.1,99.3 ± 1.9,96.6 ± 4.1,86.4 ± 1.2,10.8 ± 0.34,12.9 ± 3.7,21.8 ± 0.43,4.58 ± 1
COc1c(C)c2c(c(O)c1C/C=C(\C)CCC(=O)O)C(=O)OC2 [Mycophenolic acid],96.8 ± 3.9,72.1 ± 34,85.6 ± 16,91.1 ± 12,89.8 ± 13,96.4 ± 5.6,86.3 ± 18,92.87 ± 0.34,99 ± 6.1,95.9 ± 2.7,94.33 ± 0.34,99.1 ± 7.1,113.3 ± 0.98,106.1 ± 0.96,103 ± 7.8,98.72 ± 0.17,31.9 ± 4.8,56.2 ± 3.4,55.8 ± 1.6,55.7 ± 1.7
C1CCC(C(CC2CCCCN2)C2CCCCC2)CC1.O=C(O)/C=C\C(=O)O (stereo not given) [Perhexiline],101 ± 3.6,108 ± 3.6,104.6 ± 0.56,90.6 ± 16,95.4 ± 6.8,102 ± 4.9,91.3 ± 14,98.9 ± 25,108 ± 5.2,103 ± 3.9,99 ± 9.2,112.1 ± 0.54,99.1 ± 2.5,105 ± 2.4,86.4 ± 9.4,73.2 ± 25,-0.971 ± 0.58,-1.01 ± 1.6,-1.86 ± 0.47,-1.67 ± 0.61
OCCN1CCN(CCCN2c3ccccc3Sc3ccc(Cl)cc32)CC1 [Perphenazine],101 ± 1.7,105 ± 2.5,98.1 ± 2.6,99.74 ± 0.41,99.4 ± 5.2,102 ± 1.6,101 ± 11,105 ± 2,107 ± 5.8,105 ± 4.4,95.1 ± 16,107 ± 8.5,98.6 ± 1.1,103.72 ± 0.059,97.5 ± 15,109 ± 5.6,86.3 ± 7,91.3 ± 5.4,55.4 ± 12,61.7 ± 8
C=CCc1ccc2c(c1O)C(=O)c1ccccc1C2=O [R162],106 ± 5.3,103 ± 1.6,102 ± 2.1,102 ± 18,99.12 ± 0.61,103 ± 3.5,103 ± 8.4,101 ± 10,104 ± 4.1,98.1 ± 2.4,98.5 ± 4.3,101 ± 7.5,102 ± 1.3,100.6 ± 0.84,100 ± 2.6,104 ± 2.5,106 ± 4.2,97.8 ± 2.4,97.07 ± 0.71,90.6 ± 9.3
O=C(c1ccc(OCCN2CCCCC2)cc1)c1c(-c2ccc(O)cc2)sc2cc(O)ccc12 [Raloxifene],93 ± 9.2,85.9 ± 11,79.1 ± 13,104.6 ± 0.91,91.9 ± 19,80.4 ± 24,80.5 ± 22,94.1 ± 9,98 ± 1.4,101 ± 2.3,93.3 ± 1.2,99.7 ± 8.1,101 ± 8.2,97.14 ± 0.84,87.1 ± 23,105 ± 2.5,100.7 ± 0.99,101 ± 1.9,70.9 ± 18,113 ± 9.9
NC(=O)c1ncn([C@@H]2O[C@H](CO)[C@@H](O)[C@H]2O)n1 [Ribavirin],100 ± 3.5,100.3 ± 0.67,92.1 ± 6.2,105 ± 7.1,100 ± 4.4,102 ± 1.6,76.6 ± 27,106 ± 5,99.2 ± 3.9,102 ± 3,94.1 ± 5.5,101 ± 3,99.8 ± 4.1,97.1 ± 3.6,90.1 ± 14,107 ± 3.6,106 ± 2.2,104 ± 4.4,90.4 ± 12,104 ± 3.7
Nc1ncnc2c1ncn2[C@@H]1O[C@H](CSCC[C@H](N)C(=O)O)[C@@H](O)[C@H]1O [S-Adenosyl Homocysteine],103 ± 18,97.1 ± 11,91.8 ± 36,108 ± 33,85.2 ± 20,93.3 ± 4.4,86.7 ± 12,78.6 ± 4.6,101 ± 3.4,98.6 ± 3.3,103 ± 8.4,102 ± 5.2,97.2 ± 3.1,98.5 ± 2.5,99.08 ± 0.63,97.8 ± 7,101.99 ± 0.033,99.4 ± 3.9,94.5 ± 13,98 ± 4.3
CCCc1nn(C)c2c(O)nc(-c3cc(S(=O)(=O)N4CCN(C)CC4)ccc3OCC)nc12 [Sildenafil],104 ± 6.6,88.1 ± 13,91.3 ± 6.8,79.6 ± 40,99.2 ± 1.4,98.4 ± 4.1,96.77 ± 0.75,102 ± 7.1,104.5 ± 0.69,106 ± 5.1,123 ± 12,117 ± 10,99.4 ± 4.6,103 ± 2.1,97.06 ± 0.92,93.6 ± 18,99.89 ± 0.83,102 ± 2.9,93 ± 1.7,94.7 ± 7.5
Cc1coc2c1C(=O)C(=O)c1c-2ccc2c(C)cccc12 [Tanshinone I],100.1 ± 0.2,97.288 ± 0.063,94.6 ± 6.6,97.1 ± 5.6,101 ± 1.8,103 ± 6.3,103.8 ± 0.31,104 ± 3.1,104 ± 9.7,101.8 ± 0.9,108 ± 12,101 ± 0.32,104 ± 1.6,103.5 ± 0.31,102 ± 4.4,103.6 ± 0.57,100.3 ± 0.27,97.2 ± 5.3,101 ± 1.4,106 ± 9.7
CCOC(=O)N1c2ccc(C(F)(F)F)cc2[C@@H](N(Cc2cc(C(F)(F)F)cc(C(F)(F)F)c2)C(=O)OC)C[C@H]1CC [Torcetrapib],101 ± 1.8,104.8 ± 1,101 ± 10,113 ± 16,98.6 ± 2.3,99.13 ± 0.66,104 ± 15,105 ± 22,97.5 ± 4,98.7 ± 8.2,88 ± 9.7,83.6 ± 18,97.7 ± 6.2,103 ± 6.9,94.9 ± 7.2,100 ± 4.2,98.8 ± 5.5,100 ± 1.6,95.4 ± 16,117 ± 21
Oc1cc(Cl)ccc1Oc1ccc(Cl)cc1Cl [Triclosan],100 ± 3.6,101 ± 2.6,102 ± 4.7,93.3 ± 13,104 ± 5.1,98.7 ± 7.6,107 ± 9.5,120 ± 9.4,96.5 ± 1.2,99.7 ± 1.2,95.3 ± 5.2,95.7 ± 12,94.9 ± 7.2,99.6 ± 1.5,105 ± 4.4,111 ± 3.4,103 ± 3.2,111 ± 4,99.7 ± 2.5,107.6 ± 0.22
COc1cc2c(NC3CCN(C)CC3)nc(N3CCCN(C)CC3)nc2cc1OCCCN(C)C [UNC0224],102 ± 2.2,104 ± 2.2,114 ± 13,101 ± 1.9,101 ± 5.6,103 ± 7.6,113 ± 31,108 ± 0.28,100 ± 1.5,102 ± 6.9,96.8 ± 5.5,102 ± 9.6,99.416 ± 0.052,101 ± 1.8,96.3 ± 3.7,103 ± 1.8,95.6 ± 0.11,93.3 ± 4.4,91.9 ± 6.9,74.8 ± 9.6
CC(C)C[C@H](NC(=O)[C@@H](O)[C@H](N)Cc1ccccc1)C(=O)O [Ubenimex],101 ± 4.3,104 ± 3.4,102 ± 3.6,99.1 ± 1.1,101 ± 11,103 ± 1.4,95.6 ± 11,93.2 ± 11,99.3 ± 9.9,102 ± 3.4,107 ± 2,104 ± 7.1,98.1 ± 2.2,97.6 ± 5.8,94 ± 4.7,79.3 ± 1.4,106 ± 2,95.3 ± 1.6,103 ± 5.7,98.8 ± 3.3
O=P(O)(O)C(O)(Cn1ccnc1)P(=O)(O)O [Zoledronic acid],102 ± 2.9,98.3 ± 11,91.7 ± 49,81.3 ± 24,101 ± 2.4,99.8 ± 2.5,92.3 ± 6.2,98.9 ± 1.2,102 ± 2.3,101 ± 1.7,95.8 ± 4.7,100 ± 9.7,101 ± 2.5,105.3 ± 0.2,103 ± 14,108 ± 12,98 ± 3.6,101 ± 5.2,80 ± 26,98 ± 7.6
